Results as given in article PMC3222648, “Inotropic Action of the Puberty Hormone Kisspeptin in Rat, Mouse and Human: Cardiovascular Distribution and Characteristics of the Kisspeptin Receptor” (PLoS ONE, 2011).
Bridges are numbered along the chain shown (N, C = ends). Where no end group is shown, it is not given here.

Experiments:
[1] = target: T1, kisspeptin receptor (Homo sapiens, UniProt Q969F8); test: Inotropic activity in human paced atrial strips
T1 construct: cryostat-cut sections of human (15 µm) or rat (10 µm) heart; from tissue; host or cells: human right atria (control, dilated cardiomyopathy, ischaemic heart disease), cryostat sections
T1 sequence (Q969F8 whole entry): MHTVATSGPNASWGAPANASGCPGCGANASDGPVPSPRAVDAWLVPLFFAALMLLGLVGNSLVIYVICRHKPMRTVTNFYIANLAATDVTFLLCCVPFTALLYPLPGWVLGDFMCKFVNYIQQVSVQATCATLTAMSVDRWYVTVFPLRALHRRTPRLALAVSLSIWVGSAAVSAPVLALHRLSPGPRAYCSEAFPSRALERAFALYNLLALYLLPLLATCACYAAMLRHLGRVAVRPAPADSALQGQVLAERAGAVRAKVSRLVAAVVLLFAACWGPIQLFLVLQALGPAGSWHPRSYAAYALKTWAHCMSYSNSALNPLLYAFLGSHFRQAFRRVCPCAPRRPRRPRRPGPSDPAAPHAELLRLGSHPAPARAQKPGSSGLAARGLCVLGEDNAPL
Procedure: (§1) Paired rat or mouse atria, or 4 mm strips of human atrial appendage, were mounted in 10 ml organ baths containing oxygenated Krebs solution at 37°C as described previously. […] Experiments were terminated by the addition of 6.7 mM CaCl2 (final bath concentration 8.95 mM) and responses expressed as a % of this CaCl2 maximum. Radioligand binding study data were analyzed using the iterative, non-linear curve fitting programs EBDA and LIGAND in the KELL package (Biosoft, Cambridge, UK). Pooled KD, BMAX and Hill slopes (nH) were expressed as mean±SEM and normalized to protein concentrations. […] Where appropriate, values were compared by one-way analysis of variance (ANOVA). In all cases P<0.05 was considered statistically significant and n-values were the number of animals or patients from which data were obtained.

[2] = target: kisspeptin receptor (Rattus norvegicus, UniProt Q924U1); test: Inotropic activity in rat paced paired atria; parameters: Paired rat or mouse atria; from tissue; host or cells: rat paired atria; conditions: read-out: EMAX (maximum positive inotropic response)
kisspeptin receptor (Rattus norvegicus, UniProt Q924U1), sequence (Q924U1 whole entry): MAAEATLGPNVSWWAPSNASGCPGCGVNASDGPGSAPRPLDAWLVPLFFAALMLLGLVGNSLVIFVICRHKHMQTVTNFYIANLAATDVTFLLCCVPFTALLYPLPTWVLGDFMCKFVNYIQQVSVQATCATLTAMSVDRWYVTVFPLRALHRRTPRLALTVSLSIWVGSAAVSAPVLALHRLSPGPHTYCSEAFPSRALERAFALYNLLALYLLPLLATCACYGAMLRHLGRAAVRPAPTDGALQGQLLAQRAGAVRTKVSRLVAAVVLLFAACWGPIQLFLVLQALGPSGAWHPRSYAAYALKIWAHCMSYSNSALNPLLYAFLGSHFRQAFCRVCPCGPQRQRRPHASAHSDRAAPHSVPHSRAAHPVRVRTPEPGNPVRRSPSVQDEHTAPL
Procedure: as §1

[3] = system: endothelium-denuded rat aortic rings; test: Vasoconstrictor activity in endothelium-denuded rat aorta; conditions: mean ± SEM, ET-1 n = 7, KP-10 tissues from 4 animals, KP-54 tissues from 3 animals
Procedure: Rat thoracic aorta was cleaned of connective tissue and cut into 4 mm rings and the endothelial layer removed by gentle rubbing. Tissues were set to a basal tension at which the maximum response to 100 mM KCl was generated and subsequent responses to kisspeptins were expressed as % of this KCl response. Aortic rings were then contracted with 10 µM phenylephrine and 1 µM ACh was added; a reduction in the phenylephrine response of <10% was taken as evidence of removal of endothelium. […] Experiments were terminated by the addition of 100 mM KCl and agonist responses were expressed as a % of this KCl maximum.
Radioligand binding study data were analyzed using the iterative, non-linear curve fitting programs EBDA and LIGAND in the KELL package (Biosoft, Cambridge, UK). Pooled KD, BMAX and Hill slopes (nH) were expressed as mean±SEM and normalized to protein concentrations. In vitro pharmacology data agonist responses were expressed as %CaCl2 response in the paced atrial tissues and %KCl in the vasoconstrictor studies and data were fitted to a four parameter logistic equation using an iterative curve-fitting program (FigSys, Biosoft, Cambridge, UK) to obtain values for potency (pD2: the negative logarithm to the base 10 of the EC50) and maximum response (EMAX: %CaCl2 or %KCl, respectively) expressed as mean±SEM. Where appropriate, values were compared by one-way analysis of variance (ANOVA). In all cases P<0.05 was considered statistically significant and n-values were the number of animals or patients from which data were obtained.

Compound: CC(C)C[C@H](NC(=O)CNC(=O)[C@H](Cc1ccccc1)NC(=O)[C@H](CO)NC(=O)[C@H](CC(N)=O)NC(=O)[C@H](Cc1c[nH]c2ccccc12)NC(=O)[C@H](CC(N)=O)NC(=O)[C@@H](N)Cc1ccc(O)cc1)C(=O)N[C@@H](CCCNC(=N)N)C(=O)N[C@@H](Cc1ccccc1)C(N)=O [KP-10]
- EC50 [1]: 0.102 nM
- Emax ([1]; % of CaCl2 maximum (8.95 mM final), human atrial strips, mean ± SEM, n = 5, read-out: EMAX (maximum positive inotropic response)): 59 ± 10%
- Emax [2]: 31 ± 5%

Compound: ET-1: ET-1 (human) from Peptide Institute, control vasoconstrictor (CSCSSLMDKECVYFCHLDIIW; disulfide 1-15, 3-11; ends not checked; UniProt P05305 53-73, looked up)
- EMAX (maximum vasoconstrictor response) ([3]; % of 100 mM KCl maximum, endothelium-denuded rat aorta): 99±1 % KCl
- pD2 (vasoconstriction) ([3]; endothelium-denuded rat thoracic aortic rings, KP-10, KP-54 10^−12–3×10^−9 M, ET-1 10^−10–3×10^−7 M): 8.13±0.11
